In brackets after ≈: the same amount, converted by molar mass.
Legend:
[1] = Kinetic solubility assay; type: physicochemical; details: pH 6.5 PBS buffer, HPLC; for solubility: PBS buffer pH 6.5, aqueous buffer, thermodynamic from solid, read-out: Solubility (pH 6.5, μg/mL)
Description: Representative Compounds of the Disclosure were tested in a solubility assay with pH 6.5 PBS buffer. PBS buffer was prepared by dissolving 4.86 g of potassium dihydrogen phosphate and 5.09 g of disodium hydrogen phosphate dodecahydrate in 1 L of ultrapure water to have final pH value of 6.5. In the solubility assay, 0.5 mg of test sample was dissolved in 1 mL of methanol and the stock solution was transferred into 2 mL EP tube, and evaporated at 50° C. for 3 h. To the tube was added 1 mL of PBS buffer and the mixture was stirred and shaken for 1-2 h. The solution was allowed to stand overnight and then filtered before HPLC analysis. Another 1.5 mg of the sample was dissolved in 3 mL of methanol to prepare a calibration curve with a series of concentration range of 5-500 μM. The solubility of each sample was determined by the measured peak area in HPLC.

[2] = tested on: NCI-H929 cells; experiment: Cell viability assay (NCI-H929 cells), CCK-8; type: cell-based; details: Homo sapiens, NCI-H929, 24 h, WST, 5% FBS
Description: Cell Viability Assay (NCI-H929 Cells)
NCI-H929 cells were obtained from American Type Culture Collection (ATCC). Cells were maintained in the recommended culture medium (RPMI 1640) with 10% FBS and 0.05 mM BME at 37° C. and an atmosphere of 5% CO2.
The effect of Compounds on cell viability was determined using Cell Counting Kit-8 (CCK-8) assay according to the manufacturer's instructions. 95 μL of NCI-H929 cell suspension (20000 cells/well) in culture medium were seeded into 96-well plates and cultured 4 hrs. Each tested compound was serially diluted in DMSO, then 5 μL of the compound or DMSO was diluted in 95 μL medium once more. At last, 5 μL of the compound dilution was added to the corresponding well of the cell plate. After the addition of the tested compound, the cells were incubated at 37° C. in an atmosphere of 5% CO2 for 24 hrs. At the end, 10 μL of CCK-8 solution was added to each well of the plate and incubated for 1-4 hours. The plates were read at 450 nm on the microplate reader (BioTek Synergy 1MF). The readings were normalized to the vehicle cells, and the IC50 was calculated by nonlinear regression analysis using GraphPad Prism 6 software.

[3] = molecular target: T1, Mcl-1 protein (residues 171-323) (Homo sapiens, UniProt Q07820); experiment: Inhibition of Mcl-1 by fluorescence polarization (FP) competitive binding assay; details: FAM-Bid tracer 2 nM, Mcl-1 20 nM, 30 min
T1 construct: Tag-free Mcl-1 protein (residues 171-323) was used in the FP assay
Description: Inhibition of Mcl-1 by Fluorescence Polarization (FP) Assay.
The method used a fluorescein labelled peptide (FAM-Bid) which binds to the Mcl-1 protein leading to an increased anisotropy measured in milli-polarization (mP) values using a plate reader.
A 10-points serial dilution of each compound was prepared in DMSO and 5 μL solution was transferred into flat bottomed, 96-well back plate (final DMSO concentration 5%). 120 μL of Buffer (PBS, 0.01% BGG (Sigma Cat. #SRE0011), 0.01% Triton X-100), containing the Fluorescein labelled peptide (Final concentration 2 nM) and Mcl-1 protein (final concentration 20 nM) was then added. […] 10-points dose response curves were plotted with GraphPad software using Sigmoidal Dose-Response Model and the IC50 values were determined by nonlinear regression fitting of the competition curves.

[4] = tested on: OPM-2 cells; experiment: Cell viability assay (OPM-2 cells), CCK-8; type: cell-based; details: Homo sapiens, OPM-2, 24 h, WST, 5% FBS, read-out: OPM2 (WST, 5% FBS)
Description: Cell Viability Assay (OPM-2 Cells)
OPM-2 cells were obtained from Deutsche Sammlung von Mikroorganismen und Zellkulturen GmbH (DSMZ). […]
The effect of representative Compounds of the Disclosure on cell viability was determined using Cell Counting Kit-8 (CCK-8) assay (Shanghai Life iLab Bio Technology) according to the manufacturer's instructions. Each tested compound was serially diluted in culture medium, 100 μL of the compound dilution was added into 96-well plates. 100 μL of an OPM-2 cell suspension (20000 cells/well) in culture medium were seeded into the corresponding well of the plate and the cells were incubated at 37° C. in an atmosphere of 5% CO2 for 24 hours. In the next day, 20 μL of CCK-8 solution was added to each well of the plate and incubated for 4 hours.
The plates were read at 450 nm on the microplate spectrophotometer (SpectraMax plus 384, Molecular devices). The readings were normalized to the vehicle cells, and the IC50 was calculated by nonlinear regression analysis using GraphPad Prism 6 software.

T1 sequence (Q07820 171-323): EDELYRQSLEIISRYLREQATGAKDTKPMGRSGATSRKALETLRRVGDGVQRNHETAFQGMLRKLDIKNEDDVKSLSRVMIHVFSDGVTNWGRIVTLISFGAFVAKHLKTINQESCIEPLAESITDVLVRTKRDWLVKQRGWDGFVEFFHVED

Solubility (pH 6.5, μg/mL) [1] [μg/mL] | IC50 [2] [nM] | solubility [1] [µg/mL] | IC50 [3] [nM] | SMILES | IC50 [4] [nM]
<1 | – | – | – | Cn1nc2cc1CSc1cc(c3ccc(F)cc3c1)OCCCc1c(C(=O)O)n(C)c3c(c(Cl)ccc13)-c1c(nn3c1COCC3)CSC2 (atropisomer, axis not shown) [compound 39, (S)-(Z)-1^6-chloro-9^6-fluoro-1^1,6^1-dimethyl-26,27-dihydro-1^1H,2^4H,6^1H-10-oxa-4,8-dithia-2(3,2)-pyrazolo[5,1-c][1,4]oxazina-1(7,3)-indola-6(3,5)-pyrazola-9(3,1)-naphthalenacyclotridecaphane-1^2-carboxylic acid] | –
74 | – | – | – | Cn1nc2cc1CSc1cc(c3ccc(F)cc3c1)OCCCc1c(C(=O)O)n(C)c3c(c(Cl)ccc13)-c1c(nn3c1COCC3)CSC2 (atropisomer, axis not shown) [compound 40, (R)-(Z)-1^6-chloro-9^6-fluoro-1^1,6^1-dimethyl-26,27-dihydro-1^1H,2^4H,6^1H-10-oxa-4,8-dithia-2(3,2)-pyrazolo[5,1-c][1,4]oxazina-1(7,3)-indola-6(3,5)-pyrazola-9(3,1)-naphthalenacyclotridecaphane-1^2-carboxylic acid] | –
– | 47 | < 1 | – | Cc1c2c(nn1C)CSCc1cc(n(C)n1)CSc1cc(c3ccccc3c1)OCCCc1c(C(=O)O)n(C)c3c-2c(Cl)ccc13 [AZD5991, (Z)-1^6-chloro-1^1,2^1,2^5,6^1-tetramethyl-1H,2^1H,6^1H-10-oxa-4,8-dithia-1(7,3)-indola-2(4,3),6(3,5)-dipyrazola-9(3,1)-naphthalenacyclotridecaphane-1^2-carboxylic acid, reference compound] | –
– | 960 | 2 (≈ 2.85 µM) | 11.3 | Cc1nc2sc1CSc1cc(c3ccccc3c1)OCCCc1c(C(=O)O)n(C)c3c(c(Cl)ccc13)-c1c(nn3c1CCC3)CSC2 [compound 5, 1^6-chloro-1^1,6^4-dimethyl-2^5,2^6-dihydro-1^1H,2^4H-10-oxa-4,8-dithia-6(2,5)-thiazola-1(7,3)-indola-2(3,2)-pyrrolo[1,2-b]pyrazola-9(3,1)-naphthalenacyclotridecaphane-1^2-carboxylic acid] | 973
– | 1130 | 1 (≈ 1.46 µM) | 150 | Cn1nc2cc1CSCc1nn3c(c1-c1c(Cl)ccc4c(c(C(=O)O)n(C)c14)CCCOc1cc(cc4ccccc14)SC2)CCC3 [compound 7, (Z)-1^6-chloro-1^1,6^1-dimethyl-2^5,2^6-dihydro-1^1H,2^4H,6^1H-10-oxa-4,8-dithia-1(7,3)-indola-2(3,2)-pyrrolo[1,2-b]pyrazola-6(5,3)-pyrazola-9(3,1)-naphthalenacyclotridecaphane-1^2-carboxylic acid] | 774
– | 3540 | < 1 | 10.6 | Cc1oc2nc1CSc1cc(c3ccccc3c1)OCCCc1c(C(=O)O)n(C)c3c(c(Cl)ccc13)-c1c(nn3c1CCC3)CSC2 [compound 11, (Z)-1^6-chloro-1^1,6^5-dimethyl-2^5,2^6-dihydro-1^1H,2^4H-10-oxa-4,8-dithia-6(2,4)-oxazola-1(7,3)-indola-2(3,2)-pyrrolo[1,2-b]pyrazola-9(3,1)-naphthalenacyclotridecaphane-1^2-carboxylic acid] | > 10000
– | 360 | < 1 | 20.7 | Cn1nc2cc1CSc1cc(c3cc(F)ccc3c1)OCCCc1c(C(=O)O)n(C)c3c(c(Cl)ccc13)-c1c(nn3c1COCC3)CSC2 [compound 16, (Z)-1^6-chloro-9^7-fluoro-1^1,6^1-dimethyl-2^6,2^7-dihydro-1^1H,2^4H,6^1H-10-oxa-4,8-dithia-2(3,2)-pyrazolo[5,1-c][1,4]oxazina-1(7,3)-indola-6(3,5)-pyrazola-9(3,1)-naphthalenacyclotridecaphane-1^2-carboxylic acid] | 2400
– | 1620 | < 1 | 19 | Cn1nc2cc1CSc1cc(c3cc(Cl)ccc3c1)OCCCc1c(C(=O)O)n(C)c3c(c(Cl)ccc13)-c1c(nn3c1COCC3)CSC2 [compound 18, (Z)-1^6,9^7-dichloro-1^1,6^1-dimethyl-2^6,2^7-dihydro-1^1H,2^4H,6^1H-10-oxa-4,8-dithia-2(3,2)-pyrazolo[5,1-c][1,4]oxazina-1(7,3)-indola-6(3,5)-pyrazola-9(3,1)-naphthalenacyclotridecaphane-1^2-carboxylic acid] | 3490
– | 116 | 3 (≈ 4.19 µM) | 15.8 | Cn1nc2cc1CSc1cc(c3ccccc3c1)OCCCc1c(C(=O)O)n(C)c3c(c(Cl)ccc13)-c1c(nn3c1CSCC3)CSC2 [compound 21, (Z)-1^6-chloro-1^1,6^1-dimethyl-2^6,2^7-dihydro-1^1H,2^4H,6^1H-10-oxa-4,8-dithia-2(3,2)-pyrazolo[5,1-c][1,4]thiazina-1(7,3)-indola-6(3,5)-pyrazola-9(3,1)-naphthalenacyclotridecaphane-1^2-carboxylic acid] | 291
– | 100 | < 1 | 10 | Cn1nc2cc1CSc1cc(c3ccccc3c1)OCCCc1c(C(=O)O)n(C)c3c(c(Cl)ccc13)-c1c(nn3c1CCCCC3)CSC2 [compound 23, (Z)-1^6-chloro-1^1,6^1-dimethyl-2^5,2^6,2^7,2^8-tetrahydro-1^1H,2^4H,6^1H-10-oxa-4,8-dithia-2(3,2)-pyrazolo[1,5-a]azepina-1(7,3)-indola-6(3,5)-pyrazola-9(3,1)-naphthalenacyclotridecaphane-1^2-carboxylic acid] | 195
>400 | – | – | – | Cc1c2c(nn1C)CN(S(C)(=O)=O)Cc1cc(n(C)n1)CSc1cc(c3ccc(F)cc3c1)OCCCc1c(C(=O)O)n(C)c3c-2c(Cl)ccc13 [compound 45, (Z)-1^6-chloro-9^6-fluoro-1^1,2^1,2^5,6^1-tetramethyl-4-(methylsulfonyl)-1^1H,2^1H,6^1H-10-oxa-8-thia-4-aza-1(7,3)-indola-2(4,3),6(3,5)-dipyrazola-9(3,1)-naphthalenacyclotridecaphane-1^2-carboxylic acid] | –
<1 | – | – | – | Cc1c2c(nn1C)CN(S(C)(=O)=O)Cc1cc(n(C)n1)CSc1cc(c3ccc(F)cc3c1)OCCCc1c(C(=O)O)n(C)c3c-2c(Cl)ccc13 [compound 47, (S)-(Z)-1^6-chloro-9^6-fluoro-1^1,2^1,2^5,6^1-tetramethyl-4-(methylsulfonyl)-1^1H,2^1H,6^1H-10-oxa-8-thia-4-aza-1(7,3)-indola-2(4,3),6(3,5)-dipyrazola-9(3,1)-naphthalenacyclotridecaphane-1^2-carboxylic acid] | –
3 | – | – | – | Cc1c2c(nn1C)CN(S(C)(=O)=O)Cc1cc(n(C)n1)CSc1cc(c3ccc(F)cc3c1)OCCCc1c(C(=O)O)n(C)c3c-2c(Cl)ccc13 [compound 48, (R)-(Z)-1^6-chloro-9^6-fluoro-1^1,2^1,2^5,6^1-tetramethyl-4-(methylsulfonyl)-1^1H,2^1H,6^1H-10-oxa-8-thia-4-aza-1(7,3)-indola-2(4,3),6(3,5)-dipyrazola-9(3,1)-naphthalenacyclotridecaphane-1^2-carboxylic acid] | –

Reference: patent US12319703B2, “Macrocyclic fused pyrazoles as Mcl-1 inhibitors” (ASCENTAGE PHARMA (SUZHOU) CO., LTD., priority 2019, dated 2025)
